According to PMC6362038, “Secondary structures and cell-penetrating abilities of arginine-rich peptide foldamers” (Scientific Reports, 2019):
Peptide text beside a SMILES is read from it. * marks the point of attachment. 5FAM = O=C1OC2(c3ccc(O)cc3Oc3cc(O)ccc32)c2ccc(C(=O)*)cc21

What was measured:
HeLa cells [1] = test: Cellular uptake of CF-labeled peptides into HeLa cells (flow cytometry); format: cell-based; conditions: 1 µM peptide, 2, 6 and 24 h, DMEM 10% FBS, heparin wash, trypsinized, flow cytometry fluorescence, mean of n = 3
Procedure: Cellular uptake of peptides was assessed against HeLa (Fig. 5a) and CHO-K1 cells (Fig. 5b) at a concentration of 1 µM and various incubation times (2, 6, and 24 h). […] Not only stabilities against protease digestion but also other factors might contribute to prolongation of the cell-penetrating ability of peptides. […] The number of Arg residues in Arg-rich peptides is very important for their cell-penetrating ability, and six Arg are not enough. […] Substitution of Arg in Arg peptide with Ac5c, Ac5c^dOM, or (αMe)Leu positively affected its cell-penetrating ability compared with Aib. In comparison, among the peptides containing dAAs, (αMe)Leu peptide was the best for HeLa cell, Ac5c peptide was the best for CHO-K1 cell, and Ac5c^dOM peptide was the worst for both cell types (Fig. 5). Although the best peptides were different depending on cell type, the worst peptide was same for both cell types. […] Taken together, a stable helical structure by introducing dAAs into Arg-rich peptide enhanced their cell-penetrating abilities.
HeLa or CHO-K1 cells were seeded on 24-well culture plates (100,000 cells/well) and incubated in 400 µL of DMEM containing 10% FBS. The medium was then replaced with fresh medium, and a peptide solution was added to each well at a concentration of 1 µM. After each incubation time, the medium was removed and cells were washed with ice-cold PBS with heparin (20 units/mL) and trypsinized. After the addition of medium containing 10% FBS, fluorescence intensity was detected and acquired using an On-chip Flow (On-chip Biotechnologies Co., Ltd, Tokyo, Japan). The results are presented as a mean and standard deviation obtained from 3 samples.

[2] = Resistance to protease digestion with trypsin; format: in vitro ADME; conditions: 10 µM peptide in 2.5 × 10^−6 w/v% trypsin/PBS, 37 °C, RP-HPLC, α-CHCA internal standard, read-out: intact peptide after incubation with trypsin
Excerpt: (§1) Next, we examined the stability of peptides against protease digestion using trypsin (Fig. 4a) and pronase (Fig. 4b). One of the advantages of peptide foldamers containing dAAs is their high resistance to degradation by proteases[38]–[40]. Trypsin is a serine protease that cleaves amide bonds at the C terminus of cationic amino acids such as Arg and lysine. Pronase is a non-specific protease mixture produced in the culture supernatant of Streptomyces griseus. Ac5c, Ac5c^dOM, (αMe)Leu, and Leu peptides were incubated with trypsin or pronase for 1, 2, and 4 h, and then rate of intact peptide was evaluated by RP-HPLC using α-cyano-4-hydroxycinnamic acid (α-CHCA) as an internal standard. Leu peptide was promptly degraded by both trypsin and pronase, and reached 0% intact peptide after 4 h incubation in a similar manner to Arg peptide reported previously[24],[25]. On the other hand, approximately 80% of Ac5c, Ac5c^dOM, and (αMe)Leu peptides remained intact even after 4 h incubation. Introduction of dAAs into peptides markedly elevated resistance to protease digestion, whether or not peptides formed stable helical structures. In other words, peptides composed of only natural α-amino acids were easily degraded by proteases independently of their peptide secondary structures.
(§2) One-hundred microliters of peptide solution (10 µM) in 2.5 × 10^−6 w/v% trypsin or pronase/phosphate buffer saline (PBS) was incubated at 37 °C for 0, 1, 2, and 4 h. After each incubation time, 250 µL of 1% TFA/PBS solution was added to inactivate the proteases, and 50 µL of 1/2 diluted saturated α-CHCA solution was added as an internal standard, followed by HPLC analysis, which was performed using the above-mentioned conditions.

[3] = Circular dichroism, R value of secondary structure; format: physicochemical; conditions: CD, peptide 24 µM
Procedure: The conformations of peptides were analyzed by circular dichroism (CD) in pH 7.3 4-(2-hydroxyethyl)-1-piperazineethanesulfonic acid (HEPES) buffer (Fig. 3a), 40% 2,2,2-trifluoroethanol (TFE)/pH 7.3 HEPES buffer (Fig. 3b), and 75% TFE/pH 7.3 HEPES buffer (Fig. 3c). Negative maxima at 205–209 nm (π → π*) and 222–225 nm (n → π*) were diagnostic of a right-handed (P) helical structure[31]–[33]. The ratio of R (θπ → π*/θn → π*) has been used as a parameter to distinguish an α-helical structure from a 3_10-helical structure (i.e., R ≈ 1: α-helix; R < 0.4: 3_10-helix) (Table S1)[34],[35]. Helical content (helicity) of peptides was estimated from the intensity of θn → π* values. A negative maximum at 195–200 nm (π → π*) and a weak positive maximum at 217 nm (n → π*) were diagnostic of a random coil structure. […] By adding TFE to HEPES buffer, (αMe)Leu peptide formed a complete right-handed (P) helical structure in a mixture of α- and 3_10-helices (R = 0.57 and 0.56 in Figs 3b and […], respectively). The dominant structures of Ac5c and Leu peptides changed by increased the rate of TFE to eventually be α-/3_10-helices (R = 0.52) and 3_10-helix (R = 0.30), respectively (Fig. 3c). […] Cbz-[L-Leu-L-Leu-(S,S)-Ac5c^dOM]3-OMe was reported to form a right-handed (P) helical structure in 50% TFE/H2O[37]. L-Leu might contribute to stabilization of the peptide helical secondary structure as well as (S,S)-Ac5c^dOM. Destabilization of the peptide helical secondary structure by L-Arg might be stronger than stabilization of it by (S,S)-Ac5c^dOM. Taken together with the results of CD spectra (Fig. 3), in which helicity of peptides was estimated from the intensity of θn → π* values, stability in the helicity of the peptides in the current study was as follows: (αMe)Leupeptide>Ac5cpeptide≈Leupeptide>Ac5c^dOMpeptide≈Argpeptide.
Figure 3 CD spectra of peptides in (a) HEPES buffer, (b) 40% TFE/HEPES buffer, and (c) 75% TFE/HEPES buffer. Peptide concentration: 24 µM.
Optical rotation [α]^rtD was measured using a Jasco DIP-370 polarimeter (JASCO, Tokyo, Japan) using a 0.5 dm cell. Infrared (IR) spectra were recorded using a Shimadzu IR Affinity-1 spectrometer (Shimadzu Corporation, Kyoto, Japan) for conventional measurement (KBr). CD spectra were recorded using a Jasco J-720W spectropolarimeter (JASCO) with a 1.0 mm path length cell. ^1H NMR (400 MHz) and ^13C NMR (100 MHz) spectra were determined using a JEOL AL 400 spectrometer (JEOL Ltd, Tokyo, Japan). Fast atom bombardment (FAB)-MS was measured using a JEOL JMS-700N (JEOL). MALDI-TOF-MS spectra were recorded using a Bruker Ultrax spectrometer (Bruker Daltonics, Fermont, CA). Piperidine was purchased from Tokyo Chemical Industry Co., Ltd. (Tokyo, Japan). Fmoc-L-Arg(Pbf)-OH, Fmoc-Gly-OH, Fmoc-L-Leu-OH, and CLEAR-Amide resin were purchased from the Peptide Institute., Inc. (Osaka, Japan). Fmoc-(S)-(αMe)Leu-OH was obtained from Nagase & Co., Ltd. (Kyoto, Japan). Fmoc-Ac5c-OH was purchased from Watanabe Chemical Industries, Ltd. (Hiroshima, Japan). HATU, HBTU, HOAt, and HOBt were from AAPPTec (Louisville, KY). COMU was from Novabiochem (Tokyo, Japan). CF and Dulbecco’s modified Eagle’s medium (DMEM) were obtained from Sigma-Aldrich Co. (St. Louis, MO). diisopropylethylamine (DIPEA) and heparin were purchased from Wako Pure Chemicals Co., Inc. (Osaka, Japan). Diethyl ether was from Kanto Chemical Co., Inc. (Tokyo, Japan). Trifluoroacetic acid (TFA) was obtained from Nacalai Tesque, Co., Inc. (Kyoto, Japan). Hoechst 33342 and a Cell counting kit-8 were purchased from Dojindo Laboratories (Kumamoto, Japan). LysoTracker Red was from Molecular Probes (Eugene, OR).
Table S1. R values (qπ → π*/qn → π*) of synthetic peptides.
R value (qπ → π*/qn → π* )
HEPES 40% TFE/HEPES 75% TFE/HEPES

[4] = Resistance to protease digestion with pronase; format: in vitro ADME, Streptomyces griseus; conditions: 10 µM peptide in 2.5 × 10^−6 w/v% pronase/PBS, 37 °C, RP-HPLC, α-CHCA internal standard, read-out: intact peptide after incubation with pronase
Excerpt: as §1, §2

HeLa cells [5] = conditions: 24 h incubation; cited from earlier work
Procedure: Cellular uptake of peptides was assessed against HeLa (Fig. 5a) and CHO-K1 cells (Fig. 5b) at a concentration of 1 µM and various incubation times (2, 6, and 24 h). […] Furthermore, the cellular uptake of Ac5c^dOM peptide increased up t ...

| Compound | cellular uptake, course over incubation time (HeLa cells [1]) | remaining at 4 h, 10 µM [2] [%] | R value (θπ → π*/θn → π*) ([3]; 40% TFE/pH 7.3 HEPES buffer) | R value (θπ → π*/θn → π*) ([3]; 75% TFE/pH 7.3 HEPES buffer) | R value (θπ → π*/θn → π*) ([3]; pH 7.3 HEPES buffer, R ≈ 1 α-helix, R < 0.4 3_10-helix) | remaining at 4 h, 10 µM [4] [%] | cell-penetrating ability compared with Arg nonapeptide (HeLa cells [5]) |
| --- | --- | --- | --- | --- | --- | --- | --- |
| CC(C)C[C@H](NC(=O)[C@H](CCCNC(=N)N)NC(=O)[C@H](CCCNC(=N)N)NC(=O)[C@H](CC(C)C)NC(=O)[C@H](CCCNC(=N)N)NC(=O)[C@H](CCCNC(=N)N)NC(=O)[C@H](CC(C)C)NC(=O)[C@H](CCCNC(=N)N)NC(=O)[C@H](CCCNC(=N)N)NC(=O)CNC(=O)c1ccc2c(c1)C(=O)OC21c2ccc(O)cc2Oc2cc(O)ccc21)C(N)=O [Leu peptide] (5FAM-GRRLRRLRRL-NH2) | small decrease | 0 | 0.26 | 0.30 | No significant maxima | 0 | – |
| (L-Arg-L-Arg-Aib)3 [(L-Arg-L-Arg-Aib)3 nonapeptide] | – | – | – | – | – | – | much lower cell-penetrating ability than Arg nonapeptide |
